Source: DBAASP
≈ marks a conversion by molar mass, not a printed value. Where “and” joins values, the source holds several entries; their conditions need not be identical. Identical values can stand only once.

Key:
Experiment in all cases: ≥ marks a high value that may be exact or a test limit, other limits are often not marked, values filed in µg/mL are converted to µM
[1] = system: Pseudomonas aeruginosa KCTC 1637
[2] = system: Staphylococcus aureus KCTC 1621
[3] = system: Bacillus subtilis KCTC 3068
[4] = system: Salmonella typhimurium KCTC 1926
[5] = system: Staphylococcus epidermidis KCTC 1917
[6] = system: Escherichia coli KCTC 1682
[7] = system: Bacillus subtilis 168
[8] = system: Escherichia coli B
[9] = system: Staphylococcus aureus ATCC 25923
[10] = system: Escherichia coli ATCC 25922
[11] = system: Klebsiella pneumoniae ATCC 700603
[12] = system: Acinetobacter baumannii
[13] = system: Pseudomonas aeruginosa ATCC 9027
[14] = system: Klebsiella pneumoniae
[15] = system: Klebsiella pneumoniae ATCC 13883
[16] = system: Salmonella enterica subsp. enterica serovar Typhimurium ATCC 14028

MIC [1] [µM]	MIC [2] [µM]	MIC [3] [µM]	MIC [4] [µM]	MIC [5] [µM]	MIC [6] [µM]	SMILES	other results
4 (≈ 10.3 µg/mL)	2 (≈ 5.17 µg/mL)	2 (≈ 5.17 µg/mL)	1 (≈ 2.59 µg/mL)	1 (≈ 2.59 µg/mL)	2 (≈ 5.17 µg/mL)	CC[C@H](C)[C@H](NC(=O)[C@H](C)NC(=O)[C@H](CCCN=C(N)N)NC(=O)[C@H](Cc1ccccc1)NC(=O)[C@@H](NC(=O)[C@H](Cc1cnc[nH]1)NC(=O)[C@H](Cc1cnc[nH]1)NC(=O)[C@H](Cc1ccccc1)NC(=O)[C@@H](N)Cc1ccccc1)[C@@H](C)CC)C(=O)N[C@H](C(=O)N[C@@H](Cc1cnc[nH]1)C(=O)N[C@H](C(=O)NCC(=O)N[C@@H](CCCCN)C(=O)N[C@H](C(=O)N[C@H](C(=O)N[C@@H](Cc1cnc[nH]1)C(=O)N[C@@H](CCCN=C(N)N)C(=O)N[C@@H](CC(C)C)C(=O)N[C@H](C(=O)N[C@H](C(=O)NCC(=O)O)[C@@H](C)O)C(C)C)[C@@H](C)CC)[C@@H](C)O)C(C)C)C(C)C [FFHHIFRAIVHVGKTIHRLVTG]	
8 (≈ 19 µg/mL)	4 (≈ 9.49 µg/mL)	2 (≈ 4.75 µg/mL)	2 (≈ 4.75 µg/mL)	2 (≈ 4.75 µg/mL)	8 (≈ 19 µg/mL)	CC[C@H](C)[C@H](N)C(=O)NCC(=O)N[C@@H](CCCCN)C(=O)N[C@@H](CCCCN)C(=O)N[C@@H](Cc1ccccc1)C(=O)N[C@@H](CCCCN)C(=O)N[C@@H](CCCN=C(N)N)C(=O)N[C@H](C(=O)N[C@H](C(=O)N[C@@H](CCC(N)=O)C(=O)N[C@@H](CCCN=C(N)N)C(=O)N[C@H](C(=O)N[C@@H](CCCCN)C(=O)N[C@@H](CC(=O)O)C(=O)N[C@@H](Cc1ccccc1)C(=O)N[C@@H](CC(C)C)C(=O)N[C@@H](CCCN=C(N)N)C(=O)N[C@@H](CC(N)=O)C(=O)N[C@@H](CC(C)C)C(=O)O)[C@@H](C)CC)C(C)C)[C@@H](C)CC [IGKKFKRIVQRIKDFLRNL]	
8 (≈ 19.1 µg/mL)	4 (≈ 9.54 µg/mL)	2 (≈ 4.77 µg/mL)	8 (≈ 19.1 µg/mL)	2 (≈ 4.77 µg/mL)	8 (≈ 19.1 µg/mL)	CC[C@H](C)[C@H](N)C(=O)NCC(=O)N[C@@H](CCCCN)C(=O)N[C@@H](CCCCN)C(=O)N[C@@H](Cc1ccccc1)C(=O)N[C@@H](CCCCN)C(=O)N[C@@H](CCCN=C(N)N)C(=O)N[C@H](C(=O)N[C@H](C(=O)N[C@@H](CCC(N)=O)C(=O)N[C@@H](CCCN=C(N)N)C(=O)N[C@H](C(=O)N[C@@H](CCCCN)C(=O)N[C@@H](CCCCN)C(=O)N[C@@H](Cc1ccccc1)C(=O)N[C@@H](CC(C)C)C(=O)N[C@@H](CCCN=C(N)N)C(=O)N[C@@H](CC(N)=O)C(=O)N[C@@H](CC(C)C)C(=O)O)[C@@H](C)CC)C(C)C)[C@@H](C)CC [IGKKFKRIVQRIKKFLRNL]	
8 (≈ 19 µg/mL)	8 (≈ 19 µg/mL)	4 (≈ 9.48 µg/mL)	4 (≈ 9.48 µg/mL)	4 (≈ 9.48 µg/mL)	8 (≈ 19 µg/mL)	CC[C@H](C)[C@H](N)C(=O)NCC(=O)N[C@@H](CCCCN)C(=O)N[C@@H](CC(C)C)C(=O)N[C@@H](Cc1ccccc1)C(=O)N[C@@H](CCCCN)C(=O)N[C@@H](CCCN=C(N)N)C(=O)N[C@H](C(=O)N[C@H](C(=O)N[C@@H](CCC(N)=O)C(=O)N[C@@H](CCCN=C(N)N)C(=O)N[C@H](C(=O)N[C@@H](CCCCN)C(=O)N[C@@H](CCCCN)C(=O)N[C@@H](Cc1ccccc1)C(=O)N[C@@H](CC(C)C)C(=O)N[C@@H](CCCN=C(N)N)C(=O)N[C@@H](CC(N)=O)C(=O)N[C@@H](CC(C)C)C(=O)O)[C@@H](C)CC)C(C)C)[C@@H](C)CC [IGKLFKRIVQRIKKFLRNL]	
5.08 (≈ 10 µg/mL)	2.54 (≈ 5 µg/mL)	2.54 (≈ 5 µg/mL)	5.08 (≈ 10 µg/mL)	5.08 (≈ 10 µg/mL)	5.08 (≈ 10 µg/mL)	CC[C@H](C)[C@H](N)C(=O)N[C@@H](CC(C)C)C(=O)N1CCC[C@H]1C(=O)N[C@@H](Cc1c[nH]c2ccccc12)C(=O)N[C@@H](CCCCN)C(=O)N[C@@H](Cc1c[nH]c2ccccc12)C(=O)N[C@@H](CCCCN)C(=O)N[C@@H](Cc1c[nH]c2ccccc12)C(=O)N[C@@H](Cc1c[nH]c2ccccc12)C(=O)N[C@@H](CCCCN)C(=O)N[C@@H](Cc1c[nH]c2ccccc12)C(=O)N[C@@H](CCCN=C(N)N)C(=O)N[C@@H](CCCN=C(N)N)C(N)=O [ILPWKWKWWKWRR]	
3.99 (≈ 6.25 µg/mL)	7.97 (≈ 12.5 µg/mL)	7.97 (≈ 12.5 µg/mL)	2 (≈ 3.13 µg/mL)	3.99 (≈ 6.25 µg/mL)	7.97 (≈ 12.5 µg/mL)	CC[C@H](C)[C@H](NC(=O)[C@H](CCCCN)NC(=O)[C@H](CC(C)C)NC(=O)[C@H](CC(C)C)NC(=O)[C@@H](N)CCCCN)C(=O)N[C@@H](Cc1c[nH]c2ccccc12)C(=O)N[C@@H](Cc1c[nH]c2ccccc12)C(=O)N[C@H](C(=O)N[C@@H](CCCCN)C(=O)N[C@H](C(=O)N[C@@H](CC(C)C)C(=O)N[C@@H](CCCCN)C(N)=O)C(C)C)[C@@H](C)CC [KLLKIWWIKVLK]	
						CSCC[C@H](NC(=O)[C@H](Cc1cnc[nH]1)NC(=O)[C@H](C)NC(=O)[C@H](CCSC)NC(=O)[C@@H](NC(=O)[C@@H](N)CCCCN)C(C)C)C(=O)N[C@@H](CCCCN)C(N)=O [KVMAHMK]	MIC [7]: ≥ 100 µM; MIC [8]: ≥ 100 µM
						CC[C@H](C)[C@H](NC(=O)[C@H](CC(C)C)NC(=O)[C@H](CCCCN)NC(=O)[C@@H](NC(=O)[C@H](CC(C)C)NC(=O)[C@H](CCCN=C(N)N)NC(=O)[C@H](CCCN=C(N)N)NC(=O)[C@@H](NC(=O)[C@H](C)NC(=O)[C@H](CCCCN)NC(=O)[C@H](C)NC(=O)[C@H](CC(C)C)NC(=O)[C@@H](NC(=O)[C@@H](N)CCCN=C(N)N)[C@@H](C)CC)[C@@H](C)O)C(C)C)C(=O)N[C@H](C(=O)N[C@@H](CO)C(=O)NCC(=O)O)C(C)C [RILAKATRRLVKLIVSG]	MIC [9]: > 25 µM; MIC [10]: > 25 µM; MIC [11]: > 25 µM; MIC [12]: 25 µM (≈ 47.4 µg/mL); MIC [13]: > 25 µM
						CC(C)C[C@H](NC(=O)[C@H](C)NC(=O)[C@H](CCCN=C(N)N)NC(=O)[C@H](C)NC(=O)[C@H](Cc1c[nH]c2ccccc12)NC(=O)CNC(=O)[C@H](CCCN=C(N)N)NC(=O)[C@@H](N)CCCN=C(N)N)C(=O)N[C@@H](C)C(=O)N[C@@H](Cc1ccccc1)C(=O)N[C@@H](C)C(=O)N[C@@H](Cc1ccccc1)C(=O)NCC(=O)N[C@@H](CCCN=C(N)N)C(N)=O [RRGWARALAFAFGR]	MIC [9]: > 30 µM; MIC [14]: 1.9 µM (≈ 3.1 µg/mL); MIC [10]: 6.6 µM and 15.5 µM; MIC [15]: 14.8 µM and 30 µM; MIC [12]: 1.8 µM (≈ 2.94 µg/mL)
						CC(C)C[C@H](NC(=O)[C@H](CCCN=C(N)N)NC(=O)[C@H](CCCN=C(N)N)NC(=O)[C@H](C)NC(=O)[C@H](Cc1c[nH]c2ccccc12)NC(=O)CNC(=O)[C@H](CCCN=C(N)N)NC(=O)[C@@H](N)CCCN=C(N)N)C(=O)N[C@@H](Cc1ccccc1)C(=O)N[C@@H](C)C(=O)N[C@@H](C)C(=O)N[C@@H](Cc1ccccc1)C(=O)NCC(=O)N[C@@H](CCCN=C(N)N)C(=O)N[C@@H](CCCN=C(N)N)C(N)=O [RRGWARRLFAAFGRR]	MIC [9]: > 30 µM; MIC [14]: 1.8 µM (≈ 3.38 µg/mL); MIC [10]: 11.5 µM and 30 µM; MIC [15]: 30 µM (≈ 56.3 µg/mL); MIC [16]: 10.6 µM and 30 µM; MIC [12]: 4.8 µM (≈ 9 µg/mL)
4 (≈ 7.85 µg/mL)	1 (≈ 1.96 µg/mL)	0.5 (≈ 0.982 µg/mL)	2 (≈ 3.93 µg/mL)	0.5 (≈ 0.982 µg/mL)	2 (≈ 3.93 µg/mL)	CC(C)C[C@H](NC(=O)[C@H](Cc1ccccc1)NC(=O)[C@H](CCCCN)NC(=O)[C@H](Cc1c[nH]c2ccccc12)NC(=O)[C@H](Cc1c[nH]c2ccccc12)NC(=O)[C@H](Cc1c[nH]c2ccccc12)NC(=O)[C@H](CCCCN)NC(=O)[C@H](Cc1ccccc1)NC(=O)[C@H](CCCN=C(N)N)NC(=O)[C@H](CCCN=C(N)N)NC(=O)[C@@H](N)C(C)C)C(=O)N[C@@H](CCCN=C(N)N)C(=O)N[C@@H](CCCN=C(N)N)C(N)=O [VRRFKWWWKFLRR]	
